From paper PMC5049785, “Characterization of Novel Antimalarial Compound ACT-451840: Preclinical Assessment of Activity and Dose–Efficacy Modeling” (PLoS Medicine, 2016)
“Also recorded” adds a separate entry of the source.

Columns and labels:
[1] = Effect of formulation and food on oral pharmacokinetics in dogs; assay type: in vivo; details: for AUC increase versus suspension formulation / Cmax increase versus suspension formulation: fasted dogs; for AUC0-∞ geometric mean / Cmax geometric mean: dogs, 100 mg oral, fasted
[2] = as above; assay type: in vivo; details: for AUC0-∞ geometric mean / Cmax geometric mean: dogs
Protocol: The fumarate salt of ACT-451840 was administered orally at 10 mg/kg to fasted and fed male dogs (100 mg/dog, n = 4) as a suspension in an aqueous vehicle containing 0.5% (w/w) methylcellulose.

[3] = test system: P. falciparum NF54 female gametocytes; test: P. falciparum dual gamete formation assay, female; assay type: cell-based, Plasmodium falciparum; details: up to a concentration of 20 μM, 24 h incubation
Protocol: Mature P. falciparum NF54 gametocytes were cultured at Imperial College London (London, United Kingdom), as previously described. […] Male gamete formation was quantified by computer-aided automated identification and counting of exflagellation centers. Female gamete formation was visualized by live immunofluorescence with a Cy3-conjugated antibody specific for Pfs25—a female gamete expressed surface protein. […] IC50 values were calculated using GraphPad Prism version 6 using the logarithmic versus normalized response (variable slope) function (Graphpad Software, San Diego, US).

[4] = cited from earlier work
[5] = General oral toxicity study up to 4 wk, rats; assay type: in vivo
P. falciparum = test: Prediction of human efficacious exposure
From the text: In this PK/PD approach, the robust endpoint of animal survival and cure were chosen for clinical relevance. […] The alternative approach used to assess efficacious concentrations in vivo calculated the minimum inhibitory concentration and estimated a minimum parasiticidal concentration from modeling of the exposure–efficacy in the P. falciparum murine model.

[6] = in vivo
Cam3.II^C580Y parasites = test: microbe, parasite or virus in culture; assay type: cell-based, P. falciparum
Protocol: (§1) Parasites were cultured at Columbia University Medical Center (New York, USA) as previously described (1). Cam3.II and V1/S parasites, which had been genetically engineered to express K13 wild-type or K13 C580Y were seeded in a 96-well plate at 0.2% parasitemia and 1% hematocrit (2). […] Parasites were then stained with SYBR Green I (Invitrogen) and MitoTracker Deep Red (ThermoFisher Scientific) for 20 minutes at 37 °C (3). Stained parasites were detected using a BD Accuri 6 Flow Cytometer, and analyzed using FlowJo Software. IC50 values were determined by nonlinear regression using GraphPad Prism 6.0. For statistical analyses, Student’s t-tests were performed, and significance was set at P < 0.05.
(§2) Values indicate mean ± SEM, shown in nM. Significance determined by Student's t-test against parental lines.

V1/S^C580Y parasites = test: microbe, parasite or virus in culture; assay type: cell-based, P. falciparum
Protocol: as §1, §2

[7] = test system: Cam3.II^rev parasites (K13 wild-type); test: microbe, parasite or virus in culture; assay type: cell-based, P. falciparum
Protocol: as §1, §2

[8] = test system: V1/S parasites (K13 wild-type); test: microbe, parasite or virus in culture; assay type: cell-based, P. falciparum
Protocol: as §1, §2

[9] = test system: P. falciparum PfNF54^0230/N3; test: In vivo efficacy, P. falciparum mouse model (GSK)
Protocol: In vivo efficacy against P. falciparum was conducted at GSK according to the standard assay previously described. Female NODscidIL2Rγnull mice were engrafted with human erythrocytes and infected with the isolate P. falciparum PfNF54^0230/N3, a strain developed at GSK for growth in engrafted mice. […] Blood samples were collected on Days 3, 4, 5, 6, and 7 (n = 3 per time point) for parasitemia measurement by flow cytometry. Similarly, blood samples were collected at 0.5, 1, 2, 4, 6, 8, 12, 24, and 48 h after a single administration of 4.7 mg/kg of ACT-451840 to a parallel group of three P. falciparum-infected mice for PK parameters determination. Results are expressed exclusively as antimalarial activity in the P. falciparum murine model.

[10] = 100 mg oral, aqueous suspension, fasted
[11] = fumarate salt 100 mg oral, aqueous suspension containing 0.5% methylcellulose, fasted
[12] = fumarate salt 100 mg oral, aqueous suspension containing 0.5% methylcellulose, fed
[13] = methylcellulose suspension, higher in fed

CC(=O)N1CCN(c2ccc(CN(C(=O)/C=C/c3ccc(C(C)(C)C)cc3)[C@@H](Cc3ccccc3)C(=O)N3CCN(Cc4ccc(C#N)cc4)CC3)cc2)CC1 [ACT-451840]
AUC increase versus suspension formulation ([1]; Phosal 53 MCT solution): 5.0 fold
Cmax increase versus suspension formulation ([1]; Phosal 53 MCT solution): 4.3 fold
AUC increase versus suspension formulation ([1]; corn oil solution): 7.8 fold
Cmax increase versus suspension formulation ([1]; corn oil solution): 8.1 fold
AUC0-∞ geometric mean ([1]; Phosal 53 MCT solution): 0.597 µg·h/mL
Cmax geometric mean ([1]; Phosal 53 MCT solution): 0.112 µg/mL
AUC0-∞ geometric mean ([1]; corn oil solution): 0.935 µg·h/mL
Cmax geometric mean ([1]; corn oil solution): 0.213 µg/mL
AUC0-∞ geometric mean [2, 10]: 0.12 µg·h/mL
Cmax geometric mean [2, 10]: 0.0262 µg/mL
AUC0-∞ geometric mean [2, 11]: 0.304 µg·h/mL
Cmax geometric mean [2, 11]: 0.0462 µg/mL
AUC0-∞ geometric mean [2, 12]: 1.72 µg·h/mL
Cmax geometric mean [2, 12]: 0.171 µg/mL
AUC fed dogs versus fasted dogs [2, 13]: 5.7 fold
Cmax fed dogs versus fasted dogs [2, 13]: 3.7 fold
effect on functional viability of female gametocytes (Pfs25 expression) [3]: no activity; also recorded: no effect
exposure (AUC) observed in humans ([4]; single 500 mg dose, fed human subjects): 1,408 ng*h/mL
terminal half-life ([4]; single ascending dose study): 34 h
tolerability ([4]; single ascending dose, first-in-man study in healthy male participants): well tolerated
no-observed-adverse-effect level ([5]; oral): 100 mg/kg/day
local gastrointestinal toxicity ([5]; oral up to 2,000 mg/kg/day): no evidence of local gastrointestinal toxicity
efficacious human total AUC, expressed in mouse blood (P. falciparum; 227 x 23): 5,250 ng*h/mL
predicted total efficacious human plasma AUC (P. falciparum; corrected for blood/plasma ratio of 0.6): 8,750 ng*h/mL
time for which the threshold of […] would be covered (P. falciparum; single dose of 500 mg, fed state, healthy subjects): 72 h
genotoxicity, micronucleus test [6]: not genotoxic
IC50 fold change (Cam3.II^C580Y parasites; Cam3.II^C580Y versus Cam3.II^rev): 1.1
IC50 (Cam3.II^C580Y parasites; Cam3.II^C580Y, 72 h, mean ± SEM, read-out: IC50): 2.3 ± 0.6 nM
IC50 fold change (V1/S^C580Y parasites; V1/S^C580Y versus V1/S): 0.9
IC50 (V1/S^C580Y parasites; V1/S^C580Y, 72 h, mean ± SEM, read-out: IC50): 0.19 ± 0.015 nM
IC50 fold change ([7]; Cam3.II^rev (parental reference line)): 1.0
IC50 ([7]; Cam3.II^rev, 72 h, mean ± SEM, read-out: IC50): 2.1 ± 0.3 nM
IC50 fold change ([8]; V1/S (parental reference line)): 1.0
IC50 ([8]; V1/S, 72 h, mean ± SEM, read-out: IC50): 0.21 ± 0.001 nM
total AUC in blood corresponding to the ED90 ([9]; P. falciparum mouse model, quadruple-dose regimen […], linearly extrapolated from single dose of 4.7 mg/kg): 0.227 µg·h/mL
effective dose resulting in 90% antimalarial activity (ED90) ([9]; oral quadruple-dose regimen, once a day): 3.7 mg/kg
